Data on twelve compounds can be found in patent US7700593B2, “Imidazo- and triazolo-pyridine compounds and methods of use thereof” (Amgen Inc., priority 2006, dated 2010).

One assay deals with THP1 cells. Put plainly: Lipopolysaccharide-activated THP1 cell TNF production assay. Type of assay: cell-based, human. To be noted: Homo sapiens, THP-1; LPS-induced TNF-α production in THP1 cells. As to the method:
Lipopolysaccharide-Activated THP1 Cell TNF Production Assay
THP1 cells are resuspended in fresh THP1 media (RPMI 1640, 10% heat-inactivated FBS, 1×PGS, 1×NEAA, plus 30 μM βME) at a concentration of 1E6/mL. One hundred microliters of cells per well are plated in a polystyrene 96-well tissue culture. One microgram per mL of bacterial LPS is prepared in THP1 media and is transferred to the wells. Test compounds are dissolved in 100% DMSO and are serially diluted 3-fold in a polypropylene 96-well microtiter plate (drug plate). HI control and LO control wells contain only DMSO. One microliter of test compound from the drug plate followed by 10 μL of LPS are transferred to the cell plate. The treated cells are induced to synthesize and secrete TNF-α at 37° C. for 3 h. Forty microliters of conditioned media are transferred to a 96-well polypropylene plate containing 110 μL of ECL buffer (50 mM Tris-HCl pH 8.0, 100 mM NaCl, 0.05% Tween 20, 0.05% NaN3 and 1% FBS) supplemented with 0.44 nM MAB610 monoclonal Ab (R&D Systems), 0.34 nM ruthenylated AF210NA polyclonal Ab (R&D Systems) and 44 μg/mL sheep anti-mouse M280 Dynabeads (Dynal). After a 2 h incubation at room temperature with shaking, the reaction is read on the ECL M8 Instrument (IGEN Inc.). A low voltage is applied to the ruthenylated TNF-α immune complexes, which in the presence of TPA (the active component in Origlo), results in a cyclical redox reaction generating light at […]. The amount of secreted TNF-α in the presence of compound compared with that in the presence of DMSO vehicle alone (HI control) is calculated using the formula: % control (POC)=(cpd−average LO)/(average HI−average LO)*100. Data (consisting of POC and inhibitor concentration in μM) is fitted to a 4-parameter equation (y=A+((B−A)/(1+((x/C)^D))), where A is the minimum y (POC) value, B is the maximum y (POC), C is the x (cpd concentration) at the point of inflection and D is the slope factor) using a Levenburg-Marquardt non-linear regression algorithm.

The subject of another assay is monocytes. Put plainly: Lipopolysaccharide-activated monocyte TNF production assay (LPS induced TNF release). To be noted: Homo sapiens, Monocyte; LPS induced TNF release from monocytes; read-out: LPS induced TNFa. It counts as cell-based, human. The protocol: Lipopolysaccharide-Activated Monocyte TNF Production Assay
Test compounds were evaluated in vitro for the ability to inhibit the production of TNF by monocytes activated with bacterial lipopolysaccharide (LPS). Fresh residual source leukocytes (a byproduct of plateletpheresis) were obtained from a local blood bank, and peripheral blood mononuclear cells (PBMCs) were isolated by density gradient centrifugation on Ficol-Paque Plus (Pharmacia). PBMCs were suspended at 2×10^6/mL in DMEM supplemented to contain 2% FCS, 10 mM, 0.3 mg/mL […], 100 U/mL penicillin G and […] streptomycin sulfate (complete media). Cells were plated into Falcon flat bottom, 96 well culture plates (200 μL/well) and cultured overnight at 37° C. and 6% CO2. Non-adherent cells were removed by washing with 200 μl/well of fresh medium. Wells containing adherent cells (˜70% monocytes) were replenished with 100 μL of fresh medium.
Preparation of Test Compound Stock Solutions
Test compounds were dissolved in […]. Compound stock solutions were prepared to an initial concentration of […]. Stocks were diluted initially to […] in complete media. Nine two-fold serial dilutions of each compound were then prepared in complete medium.
Treatment of Cells with Test Compounds and Activation of TNF Production with Lipopolysaccharide
One hundred microliters of each test compound dilution were added to microtiter wells containing adherent monocytes and 100 μL complete medium. Monocytes were cultured with test compounds for 60 min at which time 25 μL of complete medium containing 30 ng/mL lipopolysaccharide from E. coli K532 were added to each well. Cells were cultured an additional 4 hrs. Culture supernatants were then removed and TNF presence in the supernatants was quantified using an ELISA.
Flat bottom, 96 well Corning High Binding ELISA plates were coated overnight (4° C.) with 150 μL/well of 3 μg/mL murine anti-human TNF-α MAb (R&D Systems #MAB210). Wells were then blocked for 1 h at room temperature with 200 μL/well of CaCl2-free ELISA buffer supplemented to contain 20 mg/mL BSA (standard ELISA buffer: […], 150 mM NaCl, 2 mM CaCl2, 0.15 mM thimerosal, pH 7.4). Plates were washed and replenished with 100 μL of test supernatants (diluted 1:3) or standards. Standards consisted of eleven 1.5-fold serial dilutions from a stock of 1 ng/mL recombinant human TNF (R&D Systems). Plates were incubated at room temperature for 1 h on orbital shaker (300 rpm), washed and replenished with 100 μL/well of 0.5 μg/mL goat anti-human TNF-α (R&D systems #AB-210-NA) biotinylated at a 4:1 ratio. Plates were incubated for 40 min, washed and replenished with 100 μL/well of alkaline phosphatase-conjugated streptavidin (Jackson ImmunoResearch #016-050-084) at 0.02 μg/mL. Plates were incubated 30 min, washed and replenished with 200 μL/well of 1 mg/mL of p-nitrophenyl phosphate.
Standard curve data were fit to a second order polynomial and unknown TNF-α concentrations determined from their OD by solving this equation for concentration. TNF concentrations were then plotted vs. test compound concentration using a second order polynomial. This equation was then used to calculate the concentration of test compounds causing a 50% reduction in TNF production.

Another assay has as its target p38α (Homo sapiens, UniProt Q16539). Put plainly: p38 in-vitro HTRF enzyme assay. Type of assay: biochemical. The settings on record: IC50 value ranges. As to the method:
p38 In-Vitro HTRF Enzyme Assay
The compounds of the invention can be tested for their respective affinities for the p38 protein using a conventional p38 in-vitro enzyme activity assay. For example, a P38-alpha HTRF assay may be used to measure the protein's in-vitro phosphorylation activity, and the data analyzed using time resolved fluorimetry techniques (FRET). A p38 HTRF assay is as follows. The kinase reaction buffer for p38α, p38β, p38δ and p38γ HTRF assays consists of 50 mM Tris-pH 7.5, 5 mM MgCl2, 0.1 mg/mL BSA, 100 μM Na3VO4 and 0.5 mM DTT. The HTRF detection buffer contains 100 mM HEPES-pH 7.5, 100 mM NaCl, 0.1% BSA, 0.05% Tween-20, and 10 mM EDTA. Each compound was dissolved in 100% DMSO and serially diluted (3 fold, 10 point) in a polypropylene 96-well microtiter plate (drug plate). The final starting concentration of the compound in the p38α and p38β enzymatic assays was about 1 μM. The final starting concentration of each compound in the p38δ and p38γ enzymatic assays was about 10 μM. The p38α, p38β, p38δ and p38γ kinase reactions were carried out in a polypropylene 96-well black round bottom assay plate in total volume of 30 μL kinase reaction buffer. Appropriate concentration of purified and activated enzyme (recombinant human) was mixed with indicated concentration of ATP and 100 nM GST-ATF2-Avitag, in the presence or absence (HI control) of each compound. In the absence of enzyme, the background was measured as LO control. HI controls and LO controls contained only DMSO. The reaction was allowed to incubate for 1 hour at RT. […] After 60 minutes incubation at room temperature, the assay plate was read in a Discovery Plate Reader. The wells were excited with coherent 320 nm light and the ratio of delayed ([…] post excitation) emissions at […] (native europium fluorescence) and 665 nm (europium fluorescence transferred to allophycocyanin—an index of substrate phosphorylation) was determined (Park et al, 1999). The resulting data was analyzed by taking the proportion of substrate phosphorylated in the kinase reaction in the presence of each individual compound and comparing it with that phosphorylated in the presence of DMSO vehicle alone (HI control). The data was calculated using the formula: % control (POC)=(compound−average LO)/(average HI−average LO)*100. Data (consisting of POC and inhibitor concentration in μM) was fitted to a 4-parameter equation (y=A+((B−A)/(1+((x/C)^D))), where A is the minimum y (POC) value, B is the maximum y (POC), C is the x (compound concentration) at the point of inflection and D is the slope factor, using a Levenburg-Marquardt non-linear regression algorithm. The inhibition constant (Ki) of the inhibitor was estimated from the IC50 (compound concentration at the point of inflection C) using the Cheng-Prussof equation: Ki=IC50/(1+S/Km), where S is the ATP substrate concentration, and Km is the Michaelis constant for ATP as determined experimentally. All results were expressed as the mean±the standard error of the mean. Data acquisition and non-linear regression algorithms were performed using Activity Base v5.2 and XLfit software v4.1 respectively. Additional assay information may be obtained in Park Y W, Cummings R T, Wu L, et al. Homogeneous Proximity Tyrosine Kinase Assays Scintillation Proximity Assay versus Homogeneous Time-Resolved Fluorescence. Analytical Biochemistry. 1999; 269: 94-104.
For orientation: TR-FRET usually uses a lanthanide donor and a delayed reading to cut background.

Sequence of p38α (Q16539 whole entry): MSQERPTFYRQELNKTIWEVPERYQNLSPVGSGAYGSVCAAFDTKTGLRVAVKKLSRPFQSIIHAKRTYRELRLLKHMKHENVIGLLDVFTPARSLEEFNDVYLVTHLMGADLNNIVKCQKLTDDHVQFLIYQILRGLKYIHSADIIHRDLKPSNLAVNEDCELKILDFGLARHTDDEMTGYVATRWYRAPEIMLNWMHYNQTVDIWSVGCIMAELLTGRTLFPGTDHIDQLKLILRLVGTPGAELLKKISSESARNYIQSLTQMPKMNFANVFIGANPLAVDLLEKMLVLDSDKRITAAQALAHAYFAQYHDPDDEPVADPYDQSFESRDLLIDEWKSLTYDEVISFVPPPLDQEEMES

Take `Cc1ccc(C(=O)NC2CC2)cc1-c1ccn2c(N3CCNC3=O)nnc2c1` [Example 100, N-cyclopropyl-4-methyl-3-(3-(2-oxo-1-imidazolidinyl)[1,2,4]triazolo[4,3-a]pyridin-7-yl)benzamide]: the IC50 fell in the range of 250 to 1000 nM in the assay on THP1 cells and 1000 to 5000 nM in the assay on monocytes. `Cc1ccc(C(=O)NC2CC2)cc1-c1ccn2c([C@@H](C)C(F)(F)F)nnc2c1` [Example 87, N-cyclopropyl-4-methyl-3-(3-((1R)-2,2,2-trifluoro-1-methylethyl)[1,2,4]triazolo[4,3-a]pyridin-7-yl)benzamide]: the values for the IC50 in the assay on THP1 cells and with monocytes were 25 to 100 nM and 100 to 250 nM, respectively.

For the compound `Cc1cc(F)c(C(=O)Nc2ccnn2C)cc1-c1ccn2c(-c3ccccc3Cl)nnc2c1` [Example 71, 5-(3-(2-chlorophenyl)[1,2,4]triazolo[4,3-a]pyridin-7-yl)-2-fluoro-4-methyl-N-(1-methyl-1H-pyrazol-5-yl)benzamide], the IC50 in the assay with THP1 cells was in the range of 25 to 100 nM; in the assay on monocytes it was 100 to 250 nM. For the compound `Cc1cc(F)c(C(=O)Nc2ccnn2C)cc1-c1ccn2c(-c3sccc3C)nnc2c1` [Example 68, 2-fluoro-4-methyl-N-(1-methyl-1H-pyrazol-5-yl)-5-(3-(3-methyl-2-thienyl)[1,2,4]triazolo[4,3-a]pyridin-7-yl)benzamide], the IC50 with THP1 cells is below 25 nM; with monocytes it was 100 to 250 nM. With `Cc1ccc(C(=O)NC2CC2)cc1-c1ccn2c(-c3c(F)cccc3F)nnc2c1` [Example 65, N-cyclopropyl-3-(3-(2,6-difluorophenyl)[1,2,4]triazolo[4,3-a]pyridin-7-yl)-4-methylbenzamide], the IC50 with THP1 cells and in the assay with monocytes was below 25 nM throughout.

For the compound `Cc1cc(F)c(C(=O)Nc2ccnn2C)cc1-c1ccn2c(-c3c(F)cccc3Cl)nnc2c1` [Example 73, 5-(3-(2-chloro-6-fluorophenyl)[1,2,4]triazolo[4,3-a]pyridin-7-yl)-2-fluoro-4-methyl-N-(1-methyl-1H-pyrazol-5-yl)benzamide], the IC50 with THP1 cells was below 25 nM; with monocytes, 25 to 100 nM. For the compound `COc1ccccc1-c1nnc2cc(-c3cc(C(=O)NC4CC4)ccc3C)ccn12` [Example 85, N-cyclopropyl-4-methyl-3-(3-(2-(methyloxy)phenyl)[1,2,4]triazolo[4,3-a]pyridin-7-yl)benzamide], on p38α, the IC50 was below 25 nM. `Cc1ccc(C(=O)NC2CC2)cc1-c1ccn2c(-c3c(C)cccc3F)nnc2c1` [Example 84, N-cyclopropyl-3-(3-(2-fluoro-6-methylphenyl)[1,2,4]triazolo[4,3-a]pyridin-7-yl)-4-methylbenzamide]: on p38α, the IC50 was below 25 nM. On to `Cc1c(F)cc(C(=O)NC2CC2)cc1-c1ccn2c(C(C)(C)C)nnc2c1C` [Example 76, N-cyclopropyl-3-(3-(1,1-dimethylethyl)-8-methyl[1,2,4]triazolo[4,3-a]pyridin-7-yl)-5-fluoro-4-methylbenzamide], for which the IC50 in the assay on THP1 cells fell in the range of 25 to 100 nM; in the assay with monocytes, 100 to 250 nM. `Cc1ccc(C(=O)NC2CC2)cc1-c1ccn2c(C(C)(C)C)nnc2c1C` [Example 77, N-cyclopropyl-3-(3-(1,1-dimethylethyl)-8-methyl[1,2,4]triazolo[4,3-a]pyridin-7-yl)-4-methylbenzamide]: the IC50 is 25 to 100 nM in the assay on THP1 cells and 100 to 250 nM in the assay with monocytes.

Regarding `Cc1cc(F)c(C(=O)NC2CC2)cc1-c1ccn2c(-c3c(F)cccc3Cl)nnc2c1` [Example 72, 5-(3-(2-chloro-6-fluorophenyl)[1,2,4]triazolo[4,3-a]pyridin-7-yl)-N-cyclopropyl-2-fluoro-4-methylbenzamide], the IC50 in the assay on THP1 cells and in the assay on monocytes was 25 to 100 nM throughout. `Cc1cc(F)c(C(=O)NC2CC2)cc1-c1ccn2c(-c3sccc3C)nnc2c1` [Example 67, N-cyclopropyl-2-fluoro-4-methyl-5-(3-(3-methyl-2-thienyl)[1,2,4]triazolo[4,3-a]pyridin-7-yl)benzamide]: the IC50 in the assay on THP1 cells was 25 to 100 nM; in the assay with monocytes, 100 to 250 nM.
